Laboratory results: patent EP0656355A1, “BIPHENYLMETHANE DERIVATIVE AND MEDICINE CONTAINING THE SAME” (WAKUNAGA SEIYAKU KABUSHIKI KAISHA, priority 1992, dated 1994)

Columns and labels:
[1] = system: angiotensin II contraction in longitudinal ileac muscles; assay: Inhibitory activity to angiotensin II contraction in longitudinal ileac muscles excised from a guinea pig; type: cell-based, Hartley male guinea pig; conditions: Cavia porcellus, 20 min; 50% contraction inhibition concentration; 10⁻⁸M angiotensin II; test compound reacted for 20 minutes; guinea pig ileum longitudinal muscle; read-out: IC₅₀
Procedure: (2) Inhibitory activity to angiotensin II contraction in longitudinal ileac muscles excised from a guinea pig
A Hartley male guinea pig (350-450 g in weight) was sacrificed under exsanguination, followed by the excision of its ileum.
A longitudinal muscle tissue (2 cm long) was prepared from the ileum in a manner known per se in the art. The sample was suspended in a 20-mℓ Magnus cylinder filled with a Tylode solution [composition (mM): NaCℓ 137, KCℓ 2.7, CaCℓ₂ 1.88, MgCℓ₂ 1.1, NaH₂PO₄ 0.4, NaH₂CO₃ 11.8 and glucose 5.6). The Tylode solution was incubated at 37°C and saturated with a mixed gas consisting of 95% O₂ + 5% CO₂. Using an isometric transducer ("TB-611T", manufactured by Nihon Kohden Corporation), variations in contraction were measured. The measurement results were recorded on a computer ("PC-9801", manufactured by NEC Corporation).
Under a load of 0.5 g initial tension, the longitudinal muscle sample was equilibrated in a nutrient solution for about one hour while being washed therewith at intervals of 15 minutes. Then, contracture by the administration of 80 mM of KCℓ was repeated twice. After conforming that the contraction occurred stably, the following test was conducted.
First, 10^-8M angiotensin II was administered to the sample and its maximum contraction was recorded. The test compound was then administered to the sample and they were reacted for 20 minutes. Administered again was 10⁻⁸M angiotensin II and the maximum contraction was measured. […] This test was repeated at increased concentrations of the test compound. A 50% contraction inhibition concentration (IC₅₀) was determined in accordance with a linear regressive calculation of the contraction inhibition rates.

[2] = target: T1, angiotensin II (AII) receptor (Rattus norvegicus, UniProt P25095); assay: Inhibitory action against the binding with angiotensin II (AII) receptor, 125I-AII competition on cultured rat aortic smooth muscle cells; design: species or system male Wistar rat; conditions: 50% substitution of ¹²⁵I-AII specific binding; ¹²⁵I-AII 2 x 10⁻¹⁰M; one hour at room temperature; rat vascular smooth muscle cells; read-out: IC₅₀
T1 construct: Vascular smooth muscle cells, which had been separated from the aorta of a male Wistar rat and cultured on a 24-well multiplate; endogenous in cells; host or cells: primary cultured vascular smooth muscle cells from the aorta of a male Wistar rat
T1 sequence (P25095 1-359): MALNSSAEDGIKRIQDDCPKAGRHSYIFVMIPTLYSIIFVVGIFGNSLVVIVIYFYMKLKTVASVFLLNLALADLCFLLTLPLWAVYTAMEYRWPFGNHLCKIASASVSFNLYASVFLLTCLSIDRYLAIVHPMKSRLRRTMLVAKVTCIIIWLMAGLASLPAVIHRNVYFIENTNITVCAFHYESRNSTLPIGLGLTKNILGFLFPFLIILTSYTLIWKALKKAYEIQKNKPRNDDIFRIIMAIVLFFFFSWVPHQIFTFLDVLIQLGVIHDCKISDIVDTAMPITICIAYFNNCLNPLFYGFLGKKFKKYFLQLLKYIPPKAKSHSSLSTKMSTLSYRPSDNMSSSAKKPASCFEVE
Procedure: (1) Inhibitory action against the binding with angiotensin II (AII) receptor, using cultured rat aortic smooth muscle cells The present test was conducted in accordance with the method reported by Chiu et al. in European Journal of Pharmacology, 157, 13-21(1988), though after some modifications. […] To each well, ¹²⁵I-AII (final concentration: 2 x 10⁻¹⁰M) was added together with or without a test compound to give a total volume of 0.2 mℓ. Then the wells were incubated for one hour at room temperature to make the ¹²⁵I-AII and the test compound competitively bind to the vascular smooth muscle cells. Each well was thereafter washed with an ice-cold buffer three times to remove unbound ¹²⁵I-AII. To the cells, 0.2 mℓ of a 1 mol/ℓ solution of sodium hydroxide was added to solubilize the bound ¹²⁵I-AII. A bound amount of ¹²⁵I-AII contained in the resulting cell solution was measured by a gamma counter. The above test was conducted for each compound at different concentrations of 3 doses or more. The inhibition rate against the specific binding with ¹²⁵I-AII at each concentration was calculated in accordance with an equation to be set out subsequently herein.

| Compound | IC50 [1] [nM] | IC50 [2] [nM] |
| --- | --- | --- |
| CCCCc1nn(Cc2ccc(-c3ccccc3-c3nnn[nH]3)cc2)c(=NC(=O)CCC)s1 [Compound No.13, 2-Butyrylimino-5-n-butyl-3-[2'-(1H-tetrazol-5-yl)biphenyl-4-yl]methyl-1,3,4-thiadiazoline] | 24 | 14 |
| CCc1nn(Cc2ccc(-c3ccccc3-c3nnn[nH]3)cc2)c(=NC(=O)c2ccccc2Cl)s1 [Compound No.68, 2-(2-Chlorobenzoyl)imino-5-ethyl-3-[2'-(1H-tetrazol-5-yl)biphenyl-4-yl]methyl-1,3,4-thiadiazoline] | – | 5.7 |
| CCCCc1nnc(N(Cc2ccc(-c3ccccc3-c3nn[nH]n3)cc2)C(=O)CCC)s1 [Compound No.14, 2-[N-Butyryl-N-(2'-(1H-tetrazol-5-yl)biphenyl-4-yl)methyl]amino-5-n-butyl-1,3,4-thiadiazole] | 36 | 9.8 |
| CCCC(=O)N(Cc1ccc(-c2ccccc2-c2nn[nH]n2)cc1)c1nnc(C2CC2)s1 [Compound No.12, 2-[N-Butyryl-N-(2'-(1H-tetrazol-5-yl)biphenyl-4-yl)methyl]amino-5-cyclopropyl-1,3,4-thiadiazole] | 28 | 32 |
| CCCCC(=O)N=c1sc(CC)nn1Cc1ccc(-c2ccccc2-c2nnn[nH]2)cc1 [Compound No.31, 2-Valerylimino-5-ethyl-3-[2'-(1H-tetrazol-5-yl)biphenyl-4-yl]methyl-1,3,4-thiadiazoline] | – | 17 |
| CCCC(=O)N=c1sc(CC)nn1Cc1ccc(-c2ccccc2-c2nnn[nH]2)cc1 [Compound No.1, 2-Butyrylimino-5-ethyl-3-[2'-(1H-tetrazol-5-yl)biphenyl-4-yl]methyl-1,3,4-thiadiazoline] | 23 | 8 |
| CCc1nn(Cc2ccc(-c3ccccc3-c3nnn[nH]3)cc2)c(=NC(=O)C2CC2)s1 [Compound No.19, 2-Cyclopropylcarbonylimino-5-ethyl-3-[2'-(1H-tetrazol-5-yl)biphenyl-4-yl]methyl-1,3,4-thiadiazoline] | – | 15 |
| CCCCC(=O)N(Cc1ccc(-c2ccccc2-c2nn[nH]n2)cc1)c1nnc(C2CC2)s1 [Compound No.34, 2-[N-Valeryl-N-(2'-(1H-tetrazol-5-yl)biphenyl-4-yl)methyl]amino-5-cyclopropyl-1,3,4-thiadiazole] | – | 10 |
| CCc1nn(Cc2ccc(-c3ccccc3-c3nnn[nH]3)cc2)c(=NC(=O)C(F)(F)F)s1 [Compound No.50, 2-Trifluoroacetylimino-5-ethyl-3-[2'-(1H-tetrazol-5-yl)biphenyl-4-yl]methyl-1,3,4-thiadiazoline] | 4.9 | – |
| O=C(O)C1=C(C(=O)N=c2sc(C3CC3)nn2Cc2ccc(-c3ccccc3-c3nn[nH]n3)cc2)CCC1 [Compound No.132, 2-[[5-Cyclopropyl-3-[2'-(1H-tetrazol-5-yl)biphenyl-4-yl]methyl-1,3,4-thiadiazoline-2-yliden]aminocarbonyl]-1-cyclopetenecarboxylic acid] | 0.4 | – |
| O=C(O)c1ccccc1C(=O)N=c1sc(C2CC2)nn1Cc1ccc(-c2ccccc2-c2nnn[nH]2)cc1 [Compound No.137, N-[5-Cyclopropyl-3-[2'-(1H-tetrazol-5-yl)biphenyl-4-yl]methyl-1,3,4-thiadiazoline-2-yliden]phthalamic acid] | 0.9 | – |
| CCc1nn(Cc2ccc(-c3ccccc3-c3nnn[nH]3)cc2)c(=NS(=O)(=O)c2ccccc2C(=O)OC)s1 [Compound No.151, 2-[[5-Ethyl-3-[2'-(1H-tetrazol-5-yl)biphenyl-4-yl]methyl-1,3,4-thiadiazoline-2-yliden]aminosulfonyl]benzoic acid methyl ester] | 0.8 | – |
| CCCc1nn(Cc2ccc(-c3ccccc3-c3nnn[nH]3)cc2)c(=NC(=O)C2=C(C(=O)O)CCC2)s1 [Compound No.131, 2-[[5-n-Propyl-3-[2'-(1H-tetrazol-5-yl)biphenyl-4-yl]methyl-1,3,4-thiadiazoline-2-yliden]aminocarbonyl]-1-cyclopenten carboxylic acid] | 0.84 | – |
| CCCC(=O)N=c1sc(C2CC2)nn1Cc1ccc(-c2ccccc2-c2nnn[nH]2)cc1 [Compound No.11, 2-Butyrylimino-5-cyclopropyl-3-[2'-(1H-tetrazol-5-yl)biphenyl-4-yl]methyl-1,3,4-thiadiazoline] | 26 | 6.5 |
| CCCCc1sc(=NC(=O)C2CC2)n(Cc2ccc(-c3ccccc3-c3nnn[nH]3)cc2)c1C(=O)O [Compound No.245, 2-Cyclopropylcarbonylimino-3-[2'-(1H-tetrazol-5-yl)biphenyl-4-yl]methyl-5-n-butylthiazoline-4-carboxylic acid] | 0.35 | – |
| O=C(N=c1sc(C2CC2)nn1Cc1ccc(-c2ccccc2-c2nn[nH]n2)cc1)C1CC1 [Compound No.23, 2-Cyclopropylcarbonylimino-5-cyclopropyl-3-[2'-(1H-tetrtazol-5-yl)biphenyl-4-yl]methyl-1,3,4-thiadiazoline] | – | 31 |
| CCCCC(=O)N(Cc1ccc(-c2ccccc2-c2nn[nH]n2)cc1)c1nnc(C)s1 [Compound No.30, 2-[N-Valeryl-N-(2'-(1H-tetrazol-5-yl)biphenyl-4-yl)methyl]amino-5-methyl-1,3,4-thiadiazole] | 29 | – |
| CCCc1sc(=NC(=O)C2CC2)n(Cc2ccc(-c3ccccc3-c3nnn[nH]3)cc2)c1C(=O)O [Compound No.244, 2-Cyclopropylcarbonylimino-3-[2'-(1H-tetrazol-5-yl)biphenyl-4-yl]methyl-5-n-propylthiazoline-4-carboxylic acid] | 0.76 | – |
| O=C(N=c1sc(-c2ccccc2)nn1Cc1ccc(-c2ccccc2-c2nnn[nH]2)cc1)C1CC1 [Compound No.27, 2-Cyclopropylcarbonylimino-5-phenyl-3-[2'-(1H-tetrazol-5-yl)biphenyl-4-yl]methyl-1,3,4-thiadiazoline] | 10 | – |
| CCCCc1nn(Cc2ccc(-c3ccccc3-c3nnn[nH]3)cc2)c(=NC(=O)CC)s1 [Compound No.7, 2-Propionylimino-5-n-butyl-3-[2'-(1H-tetrazol-5-yl)biphenyl-4-yl]methyl-1,3,4-thiadiazoline] | 21 | 6.8 |
| CCc1nn(Cc2ccc(-c3ccccc3-c3nnn[nH]3)cc2)c(=NC(=O)c2cscc2C(=O)O)s1 [Compound No.143, 4-[[5-Ethyl-3-[2'-(1H-tetrazol-5-yl)biphenyl-4-yl]methyl-1,3,4-thiadiazoline-2-yliden]aminocarbonyl] thiophene-3-carboxylic acid] | 0.64 | – |
| CCCC(=O)N(Cc1ccc(-c2ccccc2-c2nn[nH]n2)cc1)c1nnc(CC)s1 [Compound No.2, 2-[N-Butyryl-N-(2'-(1H-tetrazol-5-yl)biphenyl-4-yl)methyl]amino-5-ethyl-1,3,4-thiadiazole] | 11 | 13 |
| CCc1nn(Cc2ccc(-c3ccccc3-c3nnn[nH]3)cc2)c(=NC(=O)c2c(F)ccc(F)c2C(=O)O)s1 [Compound No.139, 3,6-Difluoro-N-[5-Ethyl-3-[2'-(1H-tetrazol-5-yl)biphenyl-4-yl]methyl-1,3,4-thiadiazoline-2-yliden] phthalamic acid] | 7.4 | – |
